Data: patent US12655116B2, “Substituted isophthalic acid diamides” (Bayer Aktiengesellschaft, priority 2020, dated 2026)

Columns and labels:
ABUTH [1] = experiment: Pre-emergence herbicidal action against ABUTH; type: in vivo, Abutilon theophrasti; settings: Abutilon theophrasti, 504 h
Outline: (§1)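 Visual rating at 3 weeks vs untreated pots; 0–100% scale, 100% = plants died. Treatment: aqueous WP/EC spray onto covering soil, 600–800 l/ha, 0.2% wetter, seeds in sandy loam.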

ALOMY [2] = experiment: Pre-emergence herbicidal action against ALOMY; type: in vivo, Alopecurus myosuroides; settings: Alopecurus myosuroides, 504 h, pre-emergence
Outline: as §1

AMARE [3] = experiment: Pre-emergence herbicidal action against AMARE; type: in vivo, Amaranthus retroflexus; settings: Amaranthus retroflexus, 504 h, scored visually after 3 weeks vs untreated controls, 100% = plants have died, 0% = like control plants
Outline: as §1

AVEFA [4] = experiment: Pre-emergence herbicidal action against AVEFA; type: in vivo, Avena fatua; settings: Avena fatua, 504 h, pre-emergence
Outline: as §1

ECHCG [5] = experiment: Pre-emergence herbicidal action against ECHCG; type: in vivo, Echinochloa crus-galli; settings: Echinochloa crus-galli, 504 h, 80 g/ha
Outline: as §1

HORMU = experiment: Pre-emergence herbicidal action against HORMU; type: in vivo, Hordeum murinum; settings: Hordeum murinum, 504 h; 80 g/ha, pre-emergence
Outline: as §1

LOLRI = experiment: Pre-emergence herbicidal action against LOLRI; type: in vivo, Lolium rigidum; settings: Lolium rigidum, 504 h, 80 g/ha
Outline: as §1

MATIN [6] = experiment: Pre-emergence herbicidal action against MATIN; type: in vivo, Matricaria inodora; settings: Tripleurospermum inodorum, 504 h
Outline: as §1

POLCO [7] = experiment: Pre-emergence herbicidal action against POLCO; type: in vivo, Polygonum convolvulus; settings: Fallopia convolvulus, 504 h, dosage 80 g/ha
Outline: as §1

SETVI [8] = experiment: Pre-emergence herbicidal action against SETVI; type: in vivo, Setaria viridis; settings: Setaria viridis, 504 h
Outline: as §1

STEME [9] = experiment: Pre-emergence herbicidal action against STEME; type: in vivo, Stellaria media; settings: Stellaria media, 504 h
Outline: as §1

VERPE [10] = experiment: Pre-emergence herbicidal action against VERPE; type: in vivo, Veronica persica; settings: Veronica persica, 504 h, dosage 80 g/ha
Outline: as §1

VIOTR [11] = experiment: Pre-emergence herbicidal action against VIOTR; type: in vivo, Viola tricolor; settings: Viola tricolor, 504 h
Outline: as §1

DIGSA [12] = experiment: Pre-emergence herbicidal action against DIGSA; type: in vivo, Digitaria sanguinalis; settings: Digitaria sanguinalis, 504 h
Outline: as §1

ABUTH [13] = experiment: Post-emergence herbicidal action against ABUTH; type: in vivo, Abutilon theophrasti; settings: Abutilon theophrasti, 504 h, visual assessment about 3 weeks after treatment vs untreated controls
Outline: (§2)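 Greenhouse pot plants in sandy loam were sprayed at the one-leaf stage, 2 to 3 weeks after sowing, with WP or EC formulations as aqueous suspension or emulsion (600 to 800 l/ha water, 0.2% wetting agent). About 3 weeks later, damage was scored visually against untreated controls as % action (100% = dead, 0% = like control).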

ALOMY [14] = experiment: Post-emergence herbicidal action against ALOMY; type: in vivo, Alopecurus myosuroides; settings: Alopecurus myosuroides, 504 h, dosage 20 g/ha, visual assessment about 3 weeks after treatment vs untreated controls
Outline: as §2

AMARE [15] = experiment: Post-emergence herbicidal action against AMARE; type: in vivo, Amaranthus retroflexus; settings: Amaranthus retroflexus, 504 h, 20 g/ha, visual assessment about 3 weeks after treatment, 100% = plants have died, 0% = like control plants
Outline: as §2

AVEFA [16] = experiment: Post-emergence herbicidal action against AVEFA; type: in vivo, Avena fatua; settings: Avena fatua, 504 h, 20 g/ha, visual assessment about 3 weeks after treatment, 100% = plants have died, 0% = like control plants
Outline: as §2

ECHCG [17] = experiment: Post-emergence herbicidal action against ECHCG; type: in vivo, Echinochloa crus-galli; settings: Echinochloa crus-galli, 504 h, dosage 20 g/ha
Outline: as §2

MATIN [18] = experiment: Post-emergence herbicidal action against MATIN; type: in vivo, Matricaria inodora; settings: Tripleurospermum inodorum, 504 h, dosage 20 g/ha
Outline: as §2

PHBPU = experiment: Post-emergence herbicidal action against PHBPU; type: in vivo, Pharbitis purpurea; settings: Ipomoea purpurea, 504 h, dosage 20 g/ha
Outline: as §2

POLCO [19] = experiment: Post-emergence herbicidal action against POLCO; type: in vivo, Polygonum convolvulus; settings: Fallopia convolvulus, 504 h, dosage 20 g/ha
Outline: as §2

SETVI [20] = experiment: Post-emergence herbicidal action against SETVI; type: in vivo, Setaria viridis; settings: Setaria viridis, 504 h
Outline: as §2

STEME [21] = experiment: Post-emergence herbicidal action against STEME; type: in vivo, Stellaria media; settings: Stellaria media, 504 h
Outline: as §2

VERPE [22] = experiment: Post-emergence herbicidal action against VERPE; type: in vivo, Veronica persica; settings: Veronica persica, 504 h
Outline: as §2

VIOTR [23] = experiment: Post-emergence herbicidal action against VIOTR; type: in vivo, Viola tricolor; settings: Viola tricolor, 504 h
Outline: as §2

DIGSA [24] = experiment: Post-emergence herbicidal action against DIGSA; type: in vivo, Digitaria sanguinalis; settings: Digitaria sanguinalis, 504 h
Outline: as §2

[25] = 80 g/ha, scored visually after 3 weeks vs untreated controls (100% = plants have died, 0% = like control plants)
[26] = 20 g/ha, scored visually after 3 weeks, 100% = plants have died, 0% = like control plants

## Cn1nnnc1NC(=O)c1ccc(C(F)F)c(C(=O)NC2CC2)c1Cl [Example 1-149]
ABUTH [1]; [25]
  pest or weed control at 80 g/ha: 100%
ABUTH [1]; dosage 20 g/ha, scored visually after 3 weeks vs untreated controls, 100% = plants have died, 0% = like control plants, read-out: Pre-emergence action against ABUTH (herbicidal activity in percent)
  pest or weed control at 20 g/ha: 100%
ALOMY [2]; [25]
  pest or weed control at 80 g/ha: 90%
ALOMY [2]; [26]
  pest or weed control at 20 g/ha: 80%
AMARE [3]; 20 g/ha
  pest or weed control at 20 g/ha: 100%
AMARE [3]; 80 g/ha
  pest or weed control at 80 g/ha: 100%
AVEFA [4]; 80 g/ha
  pest or weed control at 80 g/ha: 100%
AVEFA [4]; [26]
  pest or weed control at 20 g/ha: 80%
ECHCG [5]
  pest or weed control at 80 g/ha: 100%
HORMU
  pest or weed control at 80 g/ha: 90%
LOLRI
  pest or weed control at 80 g/ha: 90%
MATIN [6]; dosage 20 g/ha
  pest or weed control at 20 g/ha: 100%
MATIN [6]; dosage 80 g/ha
  pest or weed control at 80 g/ha: 100%
POLCO [7]
  pest or weed control at 80 g/ha: 80%
SETVI [8]; dosage 20 g/ha
  pest or weed control at 20 g/ha: 90%
SETVI [8]; dosage 80 g/ha
  pest or weed control at 80 g/ha: 100%
STEME [9]; dosage 20 g/ha
  pest or weed control at 20 g/ha: 90%
STEME [9]; dosage 80 g/ha
  pest or weed control at 80 g/ha: 100%
VERPE [10]
  pest or weed control at 80 g/ha: 100%
VIOTR [11]; dosage 20 g/ha
  pest or weed control at 20 g/ha: 100%
VIOTR [11]; dosage 80 g/ha
  pest or weed control at 80 g/ha: 100%
DIGSA [12]; dosage 20 g/ha
  pest or weed control at 20 g/ha: 100%
DIGSA [12]; dosage 80 g/ha
  pest or weed control at 80 g/ha: 100%
ABUTH [13]; dosage 5 g/ha
  pest or weed control at 5 g/ha: 80%
ABUTH [13]; dosage 20 g/ha
  pest or weed control at 20 g/ha: 100%
ALOMY [14]
  pest or weed control at 20 g/ha: 80%
AMARE [15]
  pest or weed control at 20 g/ha: 100%
AVEFA [16]
  pest or weed control at 20 g/ha: 100%
ECHCG [17]
  pest or weed control at 20 g/ha: 80%
MATIN [18]
  pest or weed control at 20 g/ha: 100%
PHBPU
  pest or weed control at 20 g/ha: 90%
POLCO [19]
  pest or weed control at 20 g/ha: 100%
SETVI [20]; dosage 5 g/ha
  pest or weed control at 5 g/ha: 100%
SETVI [20]; dosage 20 g/ha
  pest or weed control at 20 g/ha: 100%
STEME [21]; 20 g/ha
  pest or weed control at 20 g/ha: 90%
STEME [21]; dosage 5 g/ha
  pest or weed control at 5 g/ha: 90%
VERPE [22]; 5 g/ha
  pest or weed control at 5 g/ha: 80%
VERPE [22]; 20 g/ha
  pest or weed control at 20 g/ha: 100%
VIOTR [23]; 5 g/ha
  pest or weed control at 5 g/ha: 100%
VIOTR [23]; 20 g/ha
  pest or weed control at 20 g/ha: 100%
DIGSA [24]; 5 g/ha
  pest or weed control at 5 g/ha: 100%
DIGSA [24]; 20 g/ha
  pest or weed control at 20 g/ha: 100%
